Reference: US20240159675A1, “METHODS AND DEVICES FOR RATIOMETRIC CHARACTERIZATION OF FLUORESCENT PARTICLES” (NANOTEMPER TECHNOLOGIES GMBH, priority 2021, published 2024)
Read-outs that look alike come from different tables or passages of the source. One block for each molecule: values may come before it. {Cy5} = Cy5 dye label

How the values were obtained:
[1] = system: complementary 11-mer DNA strand labeled with Cy5; experiment: Kd-over-time curve of DNA hybridization, dual-emission configuration with IR laser (Example 10); type: binding
Method: For the DNA hybridization, a 16-point 1-to-1 dilution series of the unlabeled 11-mer (sequence: 5′ CCT GAA GTC C 3′) was prepared. The complementary 11-mer (sequence: 5′ GGA CTT CAG G 3′) was fluorescently labeled at its 5′ end with Cy5 and added in equal amounts to the dilution series to obtain a final sample concentration of 10 nM. The highest concentration of the unlabeled 11-mer corresponded to 100 μM.
(§1) At the timepoint 0 s, an IR laser was switched on. The response of the fluorescence intensity was simultaneously measured for 6 s (aptamer), respectively 21 s (DNA hybridization).
(§2) From above it is evident that information on the binding interaction (e.g. Kd) can be derived from any “vertical” slice in time along the ratiometric traces, when the method of the present invention is used in combination with fast IR laser heating. A new type of curve, which can be described as Kd-over-time curve can be generated. From this curve not only information on the thermodynamics but also on the binding kinetics of the interaction can be determined. In particular, if the equilibration kinetics of an interaction is slower than the heating with the IR laser, the Kd-over-time curve will show a characteristic lag.
(§3) The Kd-over-time curves provided in FIG. 23 reveal three different interactions with different dissociation constants Kd and binding kinetics.

lysozyme [2] = molecular target: T1, lysozyme (Gallus gallus, UniProt P00698); experiment: Emission spectrum of fluorescently labeled lysozyme alone and in complex with NAG3; type: binding; details: corresponding to the spectral shift (Table 3)
From the text: (§4) Shifts of 3 nm and of approx. 500 pm correspond to relative changes in the fluorescence ratio of about 37.3% and 5.5%, respectively (Table 3).

lysozyme [3] = molecular target: T1, lysozyme; experiment: Ratio 350 nm/330 nm of intrinsic tryptophan fluorescence during thermal melting ramp 35° C. to 95° C.; type: binding; details: increasing / very high concentrations of NAG3, unlabeled lysozyme
Method: To monitor the temperature of denaturation, each sample is heated from 35° C. to 95° C. […] This shift cannot be used to extract the dissociation constant of this interaction.
The alterations in the fluorescence spectrum are independent of the nature of the fluorescent label, i.e. they equally appear in intrinsic as well as extrinsic fluorescent labels. However, the extend of the alterations in the fluorescence spectrum may be increased for certain classes of labels.

[4] = Fluorescence ratio of labeled protein over time at room temperature (Example 9); type: physicochemical; details: 20 nM labeled protein, 0, 3, 8 and 19 minutes
Method: The labeled protein was then diluted to a concentration of 20 nM and loaded into a polymer-coated borosilicate glass capillary (Monolith NT.115 Premium Capillaries, MO-K025, NanoTemper Technologies).
The sample was excited at a wavelength of 591 nm. […] Measurements were performed directly after dilution (t=0 min) and again after 3, 8 and 19 minutes inside the capillary.

Cy5-labeled DNA aptamer [5] = experiment: Ratiometric measurement with a standard fluorescence microplate-reader, AMP dilution series (Example 1); type: binding; details: 20 nM Cy5-labeled DNA aptamer, read-out: dissociation constant (Kd), midpoint of dose-response curve
Method: (§5) A 14-point 1-to-1 dilution series of unlabeled AMP was prepared. The DNA aptamer was fluorescently labeled with Cy5 and added in equal amounts to the AMP dilution series to obtain a final sample concentration of 20 nM. The highest concentration of AMP corresponded to 5 mM. For measurements with a standard fluorescence microplate-reader (CLARIOstar, BMG Labtech) 95 […] of the sample were loaded into a micro-well plate.
(§6) For the microplate-reader measurements, the sample was excited at a wavelength of 590 nm and the emission was first detected at a wavelength of 628 nm to 652 nm. Then, the sample was again excited at the 590 nm wavelength and the emission was detected at a wavelength of 665 nm to 725 nm. Three subsequent fluorescence intensity measurements of the dilution series were run.
In order to characterize the interaction with the fluorescence microplate-reader, the ratio between the fluorescence intensities per well was calculated manually by using a commercially available calculation tool (Microsoft Excel). The fluorescence detected at the higher wavelength was divided by the fluorescence detected at the lower wavelength. The sigmoidal dose-response curve provided in FIG. 10A starts at a ratio value of approx. 0.95 and ends at a ratio value of approx. 0.90. The midpoint, which corresponds to the dissociation constant (Kd) of the interaction, lies at approx. 20-30 μM. […]

Cy5-labeled DNA aptamer [6] = experiment: Ratiometric measurement with the dual-emission configuration, AMP dilution series (Example 1); type: binding; details: 20 nM Cy5-labeled DNA aptamer, read-out: Kd of the interaction
Method: as §5, §6
When using lower sample concentrations, i.e. 250 pM, for the ratiometric measurement according to the present invention, the signal-to-noise ratio (S/N) is still very good (19.8) and a Kd of the interaction can be easily determined (FIG. 10C).

[7] = molecular target: Cy5-labeled DNA aptamer for adenosine; experiment: Kd-over-time curve, dual-emission configuration with IR laser, AMP (Example 10); type: binding; details: FIG. 23A
Method: For the aptamer, a 12-point 1-to-1 dilution series of unlabeled AMP was prepared. The DNA aptamer was fluorescently labeled with Cy5 and added in equal amounts to the AMP dilution series to obtain a final sample concentration of 20 nM. The highest concentration of AMP corresponded to 2 mM.
as §1, §2, §3

streptavidin = streptavidin (Streptomyces avidinii, UniProt P22629); experiment: Emission spectrum of fluorescently labeled streptavidin alone and in complex with biotin; type: binding
From the text: as §4

[8] = molecular target: fluorescently labeled streptavidin (Streptomyces avidinii, UniProt P22629); experiment: Ratiometric dual-emission dose-response, biotin dilution series (Example 4); type: binding; details: 20 nM streptavidin
Method: A 12-point 1-to-1 dilution series of unlabeled biotin was prepared. […] The highest concentration of biotin corresponded to 500 nM.
As evident from the dose-response curve shown in FIG. 17, the ratio changed from a value of approx. 2.2 to approx. 1.2 when streptavidin is unbound or in complex with biotin, respectively. Since the target concentration is much higher than the Kd, a characteristic kink at the stoichiometry point at a concentration of 80 nM biotin can be observed.

T1 sequence (P00698 19-147): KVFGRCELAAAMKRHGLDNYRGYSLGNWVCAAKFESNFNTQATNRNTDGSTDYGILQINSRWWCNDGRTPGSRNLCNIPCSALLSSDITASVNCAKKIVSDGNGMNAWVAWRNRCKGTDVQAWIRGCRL

Molecule: 11-mer complementary DNA strands: unlabeled 11-mer (5′ CCT GAA GTC C 3′) titrated against complementary 11-mer (5′ GGA CTT CAG G 3′) labeled at 5′ end with Cy5 (chain 1 CCTGAAGTCC; chain 2 GGACTTCAGG; chain 1: DNA, backbone not given here; chain 2: DNA, 5' {Cy5}, backbone not given here)
koff ([1]; measured at 22° C., FIG. 23C): smaller than 0.01 s^−1 | Kd ([1]; measured at 22° C., FIG. 23C, read-out: Kd): ~0.005 µM | koff ([1]; measured at 32° C., estimated, FIG. 23B): approx. 1 s^−1 | Kd ([1]; sample temperature 22° C., FIG. 24B, read-out: Kd value at start of IR laser on-time): ~0.01 µM | Kd ([1]; temperature after IR laser heating approx. 32° C., FIG. 24B, read-out: Kd value after IR laser heating): ~0.5 µM

Molecule: CC(=O)N[C@H]1[C@H](O[C@H]2[C@H](O)[C@@H](NC(C)=O)C(O)O[C@@H]2CO)O[C@H](CO)[C@@H](O[C@@H]2O[C@H](CO)[C@@H](O)[C@H](O)[C@H]2NC(C)=O)[C@@H]1O (stereo partly drawn) [NAG3, Tri-N-acetyl-D-glucosamine]
relative change in the fluorescence ratio (lysozyme [2]): ~5.5% | effect on thermal denaturation of lysozyme (lysozyme [3]): thermal stabilization

Molecule: Mitogen-activated protein kinase 14 (p38-α): Mitogen-activated protein kinase 14, fluorescently labeled with Protein Labeling Kit RED-NHS 2nd Generation
stability at room temperature (fluorescence ratio over about 20 minutes) [4]: not stable at room temperature but gradually denatures

Kd (Cy5-labeled DNA aptamer [5]): 20 to 30 µM | Kd (Cy5-labeled DNA aptamer [6]): 39.3 µM | Kd ([7]; Kd-over-time curve): ~30 µM | koff ([7]; estimated from Kd-over-time curve): greater than 10 s^−1
Molecule: Nc1ncnc2c1ncn2[C@@H]1O[C@H](COP(=O)(O)O)[C@@H](O)[C@H]1O [AMP, adenosine monophosphate]

Molecule: O=C(O)CCCC[C@@H]1SC[C@@H]2NC(=O)N[C@@H]21 [biotin]
relative change in the fluorescence ratio (streptavidin; corresponding to the spectral shift (Table 3)): about 37.3% | shift of the maximum emission peak wavelength (streptavidin; streptavidin 200 nM, biotin 2 μM, excitation 605 nm): 3 nm | stoichiometry point (kink in dose-response curve) ([8]; concentration of biotin): 80 nM | ratio 670 nm/650 nm of streptavidin in complex with biotin ([8]; unbound approx. 2.2): approx. 1.2
